The text below walks through data of ChEMBL document CHEMBL2434836, “Studies on substituted benzo[h]quinazolines, benzo[g]indazoles, pyrazoles, 2,6-diarylpyridines as anti-tubercular agents” (Bioorg Med Chem Lett, 2013).

Tested on in one series: not listed separately
In words: Safety index, ratio of CC50 for human THP1 cells to MIC for Mycobacterium tuberculosis H37Rv. The class given is toxicity, cell-based, THP-1.
Regarding `N#CCc1cc(-c2ccc(Br)cc2)[nH]n1`, the selectivity ratio is 8.

For a further series, the system named is Mycobacterium tuberculosis. Description: Antitubercular activity against Mycobacterium tuberculosis H37Rv assessed as growth inhibition by micro plate alamar blue assay. The class given is functional.
On to `Cc1ccc(-c2cc(/C(C#N)=C/N(C)C)n[nH]2)cc1`, for which the MIC (usually the smallest concentration in the dilution series that meets the test's criterion for growth inhibition) was more than 200 µM. Take `CN(C)/C=C(\C#N)c1cc(-c2ccccc2)[nH]n1`: the MIC was 200 µM. As for `N#Cc1c(N2CCCCC2)cc(-c2ccccc2)nc1-c1ccccc1`, the MIC was more than 200 µM. With `COc1ccc2c(c1)CCc1c(-c3ccc(OC(C)CN(C)C)cc3)nc(N)nc1-2` (configuration not stated), the MIC is 200 µM. As for `COc1ccc(-c2cc(/C(C#N)=C/N(C)C)n[nH]2)cc1`, the MIC amounted to 100 µM. Consider `COc1ccc(-c2cc3ccnc(-c4ccccc4)n3n2)cc1`, for which the minimum inhibitory concentration (MIC) is more than 200 µM. For the molecule `COc1ccc2c(c1)CCC1C2=NN(C(C)=O)C1c1ccc(OCCN2CCCCC2)cc1` (configuration not stated), the minimum inhibitory concentration (MIC) was more than 200 µM.

Take `COc1ccc2c(c1)CCc1c(-c3ccc(OCCN4CCCCC4)cc3)nc(N)nc1-2`: the minimum inhibitory concentration (MIC) stood at 50 µM. `Cc1ccc(-c2cc(N3CCOCC3)c(C#N)c(-c3ccccc3)n2)cc1`: the minimum inhibitory concentration (MIC) is more than 200 µM.

Consider `CN(C)/C=C(\C#N)c1cc(-c2ccc(Br)cc2)[nH]n1`, for which the MIC is more than 200 µM. As to `CN(C)/C=C(\C#N)c1cc(-c2ccc(Cl)cc2)[nH]n1`, the MIC is more than 200 µM. As for `N#CCc1cc(-c2ccc(Cl)cc2)[nH]n1`, the MIC was more than 200 µM. Turning to `COc1ccc2c(c1)CCc1c(-c3ccc(OCCN(C)C)cc3)nc(N)nc1-2`, the minimum inhibitory concentration (MIC) was found to be 100 µM. Consider `CN[C@@H]1[C@H](O[C@H]2[C@H](O[C@H]3[C@H](O)[C@@H](O)[C@H](N=C(N)N)[C@@H](O)[C@@H]3N=C(N)N)O[C@@H](C)[C@]2(O)C=O)O[C@@H](CO)[C@H](O)[C@H]1O` [STREPTOMYCIN], for which the minimum inhibitory concentration (MIC) is 6 µM. Still for that read-out and setting: the figure for `CCSc1nc(Cl)c(C#N)c(-c2ccc(F)cc2F)n1` is 0.78 µg/mL; for `COc1ccc2c(c1)CCc1c(-c3ccc(OCCCCC(=O)NN)cc3)nc(N)nc1-2` it is 200 µM. As for `N#Cc1c(N2CCCCC2)cc(-c2ccc(Cl)cc2)nc1-c1ccccc1`, the MIC was more than 200 µM. With `NNC(=O)c1ccncc1` [ISONIAZID], the MIC worked out at 0.2 µM. As to `COc1ccc2c(c1)CCc1c(-c3ccc(OCCN4CCCC4)cc3)nc(N)nc1-2`, the minimal inhibitory concentration (MIC) turned out to be 200 µM. As to `Cc1ccc(-c2cc(CC#N)n[nH]2)cc1`, the MIC is more than 200 µM. Still for that read-out and setting: to `COc1ccc2c(c1)CCc1c(-c3ccc(OCCCCCC(=O)NN)cc3)nc(N)nc1-2` belongs 200 µM. Regarding `CCN(CC)CCOc1ccc(C2C3CCc4cc(OC)ccc4C3=NN2C(C)=O)cc1` (configuration not stated), the MIC was 200 µM. In the case of `N#CCc1cc(-c2ccc(Br)cc2)[nH]n1`, the MIC is 25 µM. `O=c1nc2ccccn2cc1-c1cc(-c2ccccc2)[nH]n1`: the MIC is more than 200 µM. Turning to `COc1ccc(-c2cc(CC#N)n[nH]2)cc1`, the MIC was 200 µM.

As for `Cc1ccc(-c2cc(N3CCCCC3)c(C#N)c(-c3ccccc3)n2)cc1`, the MIC was more than 200 µM.

Consider `COc1ccc2c(c1)CCc1c(-c3ccc(OCCCC(=O)NN)cc3)nc(N)nc1-2`, for which the MIC is 200 µM. With `COc1ccc(-c2cc(N3CCCCC3)c(C#N)c(-c3ccccc3)n2)cc1`, the minimal inhibitory concentration (MIC) was more than 200 µM. As to `COc1ccc2c(c1)CCC1C2=NN(C(C)=O)C1c1ccc(OCCN(C)C)cc1` (configuration not stated), the minimum inhibitory concentration (MIC) came out at 200 µM. For the molecule `COc1ccc2c(c1)CCC1C2=NN(C(C)=O)C1c1ccc(OC(C)CN(C)C)cc1` (configuration not stated), the MIC is 200 µM. On the same count and under the same terms, to `N#Cc1c(N2CCCCC2)cc(-c2ccc(Br)cc2)nc1-c1ccccc1` belongs more than 200 µM; to `CO[C@H]1/C=C/O[C@@]2(C)Oc3c(C)c(O)c4c(O)c(c(/C=N/N5CCN(C)CC5)c(O)c4c3C2=O)NC(=O)/C(C)=C\C=C\[C@H](C)[C@H](O)[C@@H](C)[C@@H](O)[C@@H](C)[C@H](OC(C)=O)[C@@H]1C` [RIFAMPIN], 2 µM. On to `CCOC(=O)/C(C#N)=C(\CC(=O)c1ccccc1)N1CCCCC1`, for which the MIC is more than 200 µM. Consider `COc1ccc2c(c1)CCC1C2=NN(C(C)=O)C1c1ccc(O)cc1` (configuration not stated), for which the MIC was more than 200 µM.

For the molecule `CCOC(=O)CCCCOc1ccc(-c2nc(N)nc3c2CCc2cc(OC)ccc2-3)cc1`, the minimal inhibitory concentration (MIC) turned out to be 200 µM.

As to `COc1ccc2c(c1)CCC1C2=NN(C(C)=O)C1c1ccc(OCCN2CCCC2)cc1` (configuration not stated), the MIC came out at 200 µM. As for `NC(=O)c1c(N2CCCCC2)cc(-c2ccc(Br)cc2)nc1-c1ccccc1`, the MIC was more than 200 µM. On the same count and under the same terms, to `CC1=NN(C(=O)c2cc(-c3ccc(Cl)cc3)n[nH]2)C(=O)/C1=N/Nc1cccc(F)c1` belongs 0.35 µg/mL; to `COc1ccc2c(c1)CCc1c(-c3ccc(O)cc3)nc(N)nc1-2`, more than 200 µM. On to `CCOC(=O)CCCCCOc1ccc(-c2nc(N)nc3c2CCc2cc(OC)ccc2-3)cc1`, for which the MIC came to 200 µM. Same read-out and setting: to `CCOC(=O)CCCOc1ccc(-c2nc(N)nc3c2CCc2cc(OC)ccc2-3)cc1` belongs 50 µM.

Tested on in the next series: not listed separately
In words: Cytotoxicity against human THP1 cells after 24 hrs by MTT assay. The format is cell-based, THP-1. On the technique in general: Formazan colour is commonly taken as a measure of viable cells.
With `COc1ccc(-c2cc(/C(C#N)=C/N(C)C)n[nH]2)cc1`, the half-maximal cytotoxic concentration (CC50) (in general, the concentration giving 50% cytotoxicity) at 24 h is more than 200 µM. Molecule `COc1ccc2c(c1)CCc1c(-c3ccc(OCCN4CCCCC4)cc3)nc(N)nc1-2` gave a CC50 at 24 h of 200 µM.

In turn, `COc1ccc2c(c1)CCc1c(-c3ccc(OCCN(C)C)cc3)nc(N)nc1-2` displayed a CC50 at 24 h of 200 µM. The molecule `N#CCc1cc(-c2ccc(Br)cc2)[nH]n1` showed a 50% cytotoxic concentration (CC50) at 24 h of more than 200 µM. Still for that read-out and setting: to `CCOC(=O)CCCOc1ccc(-c2nc(N)nc3c2CCc2cc(OC)ccc2-3)cc1` belongs 200 µM.
